According to patent US20050171036A1, “Use of antitumor indolopyrrolocarbazole derivative and other anticancer agent in combination” (priority 2002, published 2005):

How the values were obtained:
Type in all cases: in vivo
[1] = test system: P388 mouse leukemia cells; test: Survival of mice with intraperitoneal P388 leukemia, combined use (Example 2); conditions: CDF1 mice, P388 i.p., single i.p. dose day 1, Compound A 75, CDDP 1.67, ADM 1.5, VP-16 7.5 mg/kg; for Number of days survived (average ± standard deviation): complete remission counted as 60 days; for Increased life span (ILS %): versus control
Method: P388 mouse leukemia cells (1×10^6 cells) were transplanted intraperitoneally per mouse (day 0). One drug or two drugs were intraperitoneally administered on the next day (day 1). […] The ratio of increased life span (ILS %) was determined according to the following equation: ILS %=((the number of survived days for the group treated with drug)/(the number of survived days for the control group without drug)−1)×100
The combination index (CI) showing combination effect was determined by the following equation in accordance with the method by Uchida et al. (Uchida et al., Gan to Kagaku Ryouhou (Cancer and Chemotherapy), 25, 75-78 (1998)) based on the ILS % obtained from the treatment using one drug and the ILS % obtained from the combined treatment. CI=ILS % of the combined treatment/(ILS % with J-107088 (Compound A) alone+ILS % with another drug)
CI>1: synergistic effect, CI=1: additive effect, CI<1: antagonistic effect

[2] = test system: P388 mouse leukemia cells; test: Survival of mice with intraperitoneal P388 leukemia, equivalent-ILS doses (Example 4); conditions: CDF1 mice, P388 i.p.; single i.p. dose day 1; Compound A 25 mg/kg alone, ADM 1.5 mg/kg alone, Compound A 5 + ADM 0.3 mg/kg
Method: P388 mouse leukemia cells (1×10^6 cells) were transplanted intraperitoneally per mouse (day 0). One drug or two drugs were intraperitoneally administered on the next day (day 1). […] The ratio of increased life span (ILS %) was determined in the same manner as in Example 2.

[3] = Toxicity of equivalent-ILS doses given intraperitoneally for 5 consecutive days (Example 4); conditions: ADM 1.5 mg/kg alone, Compound A 5 + ADM 0.3 mg/kg
Method: This dose was intraperitoneally administered to mice once a day for consecutive 5 days. Thereafter, whether the animal was alive or dead was observed, and the effect of lowering toxicity was judged. As the toxicity index, the changes in the body weight between that before the administration and that on the subsequent day after the administration were recorded.

Compound | Number of days survived (average ± standard deviation) [1] [days] | Increased life span (ILS %) [1] [%] | Ratio of increased life span (ILS %) [2] [%] | Change in body weight (g) ([3]; before administration versus day after administration, i.p. once a day for 5 days) | Number of dead animals/number of animals per group ([3]; i.p. once a day for 5 consecutive days, Compound A 25 mg/kg alone)
COc1cccc2c1C(=O)c1c(O)c3c(c(O)c1C2=O)C[C@@](O)(C(=O)CO)C[C@@H]3O[C@H]1C[C@H](N)[C@H](O)[C@H](C)O1 [ADM, adriamycin (doxorubicin)] | 19.0 ± 1.9 | 65 | 92 | +0.1 g | 0/4
[NH2][Pt]([NH2])([Cl])[Cl] [CDDP, cisplatin] | 25.4 ± 19.6 | 121 | – | – | –
COc1cc([C@@H]2c3cc4c(cc3[C@@H](O[C@@H]3O[C@@H]5CO[C@@H](C)O[C@H]5[C@H](O)[C@H]3O)[C@H]3COC(=O)[C@H]23)OCO4)cc(OC)c1O [VP-16, etoposide] | 17.4 ± 4.1 | 51 | – | – | –
